{"source": "patent US10730922B2", "about": "“Composition and method for affecting the binding of antigen-binding polypeptides to antigens” (Miltenyi Biotec GmbH, priority 2016, dated 2020)", "format_in_all_cases": "binding, human", "key": {"[1]": {"tested_on": "CD4", "assay": "Competitive staining of PBMC with anti-CD4 scFv-CaM-fusions, flow cytometry", "details": "FIG. 7C", "from_the_text": "(§1) To investigate whether the linkers identified to provide modulation of binding in scFv D1.3 can be used as a “universal” module to change binding properties in other scFv fragments than D1.3, the characterized CaM-linker variants were cloned into other scFv antibodies with different specificities. The specificities were chosen according to their utility in future cell staining and separation applications, with two scFvs directed against different human clusters of differentiation (CD14, CD4) and the small hapten biotin. To identify M13 peptide-dependent scFv-CaM-variants for those specificities, human blood cells (PBMC) were stained using purified scFvs and subsequently analysed by flow cytometry. Bound scFvs were detected with fluorescently labeled anti-His-antibodies.\n(§2) The production and purification of different scFv-fusions was performed as described in Example 3. All antibodies and staining reagents used for flow cytometry applications were from Miltenyi Biotec (Bergisch Gladbach, Germany). For stainings with anti-Biotin scFv-variants, PBMC (peripheral blood mononuclear cells) were prestained with appropriate IgG-conjugates. The stainings were performed in 1.5 mL microtubes. 1×10^6 PBMC per sample were incubated on ice for 10 min in 110 μL 1×B-TBS (1×TBS+0.5% [w/v] bovine serum albumin)+5 mM CaCl2 (pH 7.4) containing anti-CD14-Biotin (dilution: 1:11). The reaction was stopped by addition of 1 mL buffer and centrifugation at 300 g for 5 min at 4° C. The supernatant was removed completely and the pellet was stored on ice and resuspended in buffer immediately before the next staining step. The following stainings were performed in 96-well polypropylene plates. Purified scFvs were diluted to appropriate concentrations in 50 μL 1×B-TBS/5 mM CaCl2 (pH 7.4 [anti-Biotin] or pH 8.0 [anti-CD14, anti-CD4]) per well. For competitive screenings, peptide (M13 peptide [Anaspec, Fremont, USA], M13-variants library and CBP (calmodulin-binding peptide) library [Genscript, Piscataway, USA]) was added in molar excess in a total volume of 5 μL per well, whereas the control stainings were supplied with 5 μL 1×B-TBS/5 mM CaCl2. The diluted scFvs were preincubated for 45 min at RT and afterwards chilled on ice for 5 min. […]\n(§3) Calmodulin binds to a variety of binding partners. […] On the one hand, 38 mutated variants of the M13 peptide were analysed, e.g. substitution mutants known to have higher affinities for calmodulin, truncated variants and combinations thereof. In addition, 29 peptides derived from further calmodulin-binding proteins like calcium ATPase, spectrin and nitric oxidase synthase were analysed with regard to potential binding modulating properties. […]"}, "[2]": {"assay": "Competitive staining of anti-CD14-Biotin prestained PBMC with anti-Biotin scFv-CaM-fusions, flow cytometry", "details": "opposite relative to M13 peptide, FIG. 7B", "from_the_text": "as §1\nThe production and purification of different scFv-fusions was performed as described in Example 3. […]\nas §3"}, "[3]": {"tested_on": "CD14", "assay": "Competitive staining of PBMC with anti-CD14 scFv-CaM-fusions, flow cytometry", "details": "peptide in molar excess, FIG. 7A", "from_the_text": "as §1, §2, §3"}}, "data": [{"substance": "CBP-Var6: another derivative of calcium-transporting ATPase (RGQILWFRGLNRIQTQIKVVNAFS; CBP-Var6; peptide derived from protein of Gallus gallus)", "values": [{"measurement": "change in fluorescence intensity, anti-CD4 scFv M-variants", "setting": "[1]; relative to M13 peptide", "result": "further increase in fluorescence intensity"}, {"measurement": "switching behaviour, anti-Biotin scFv-CaM-fusions M-1, M-2", "setting": "[2]", "result": "opposite switching behaviour"}]}, {"substance": "CBP-Var8: calmodulin-binding peptide, a derivative of spectrin (KTASPWKSARLMVHTVATFNSIKE; CBP-Var8; peptide from protein of Homo sapiens)", "values": [{"measurement": "signal change compared to M13 peptide, anti-CD14 scFv C-terminally permutated and linear variant", "setting": "[3]", "result": "slightly higher decrease"}]}, {"substance": "CBP-Var10: derived from ionotropic glutamate receptor NMDA1 (KKKATFRAITSTLASSFKRRRSSK; CBP-Var10; peptide from protein of Homo sapiens)", "values": [{"measurement": "change in binding signal, linear anti-CD4 scFv clone", "setting": "[1]", "result": "unexpected decrease in binding signal"}]}, {"substance": "M13 peptide: calmodulin-binding peptide M13 (residues 577-602 of skeletal muscle myosin light chain kinase) [reference compound]", "values": [{"measurement": "change in binding signal, linear anti-CD4 scFv clone", "setting": "[1]", "result": "did not have any influence at all"}, {"measurement": "change in binding signal, C-terminally permutated clones of anti-CD4 scFv", "setting": "[1]; peptide in molar excess, 'the same effect' refers to further increase in fluorescence intensity", "result": "increase in binding signal"}]}, {"substance": "M13-Var5: variant of the known high affinity mutant of M13 (RWKKAFIAVSAANRFKKIS; M13-Var5)", "values": [{"measurement": "signal change compared to M13 peptide, anti-CD14 scFv clones permutated in the middle of CaM and linear clone", "setting": "[3]", "result": "higher signal decrease"}]}, {"substance": "M13-Var6: variant of the known high affinity mutant of M13 (WKKAFIAVSAANRFKKIS; M13-Var6)", "values": [{"measurement": "signal change compared to M13 peptide, anti-CD14 scFv clones permutated in the middle of CaM and linear clone", "setting": "[3]", "result": "higher signal decrease"}]}, {"substance": "M13-Var7: variant of the known high affinity mutant of M13 (RWKKAFIAVSAANRFKKI; M13-Var7)", "values": [{"measurement": "signal change compared to M13 peptide, anti-CD14 scFv clones permutated in the middle of CaM and linear clone", "setting": "[3]", "result": "higher signal decrease"}]}]}
